Residues, ends and D or L forms follow the SMILES beside them.
Tests used:
VAV2 SH2 domain = VAV2 SH2 domain (Homo sapiens, UniProt P52735); assay: FP saturation binding assay
PIK3R2-N SH2 domain = PIK3R2-N SH2 domain (Homo sapiens, UniProt O00459); assay: FP saturation binding assay
[1] = target: PLCG2-NC tandem SH2 domains (Homo sapiens, UniProt P16885); assay: FP saturation binding assay
SH2 and PTB domains [2] = target: T1, SH2 and PTB domains (Homo sapiens, UniProt O75159); assay: In-house protein microarrays (with or without 5 mM DTT), protein named per line; format: binding; settings: protein SOCS5; PM assay replicate # 39337; array fabrication # 39329
T1 construct: thioredoxin; made in house; host or cells: BL21(DE3)pLysS E. coli
In short: (§1)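 KD values come from rhodamine fluorescence of duplicate spots after subtraction of a thioredoxin control. Domains were printed at ~40 µM on aldehyde slides, blocked 1 h at room temperature in pH 7.8 HEPES/KCl buffer with 5 mM DTT and 1% BSA, then peptide-probed.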

SH2 and PTB domains [3] = target: T2, SH2 and PTB domains (Homo sapiens, UniProt Q06124); assay: as above; format: binding; settings: protein PTPN11-NC, array fabrication # 39329
T2 construct: thioredoxin; made in house; host or cells: BL21(DE3)pLysS E. coli
In short: as §1

SH2 and PTB domains [4] = target: T3, SH2 and PTB domains (Homo sapiens, UniProt Q63HR2); assay: as above; format: binding; settings: protein TENC1, array fabrication # 39329
T3 construct: thioredoxin; made in house; host or cells: BL21(DE3)pLysS E. coli
In short: as §1

NCK2 SH2 domain = NCK2 SH2 domain (Homo sapiens, UniProt O43639); assay: FP saturation binding assay
SH2 and PTB domains [5] = target: T4, SH2 and PTB domains (Homo sapiens, UniProt Q8WV28); assay: In-house protein microarrays (with or without 5 mM DTT), protein named per line; format: binding; settings: protein BLNK; PM assay replicate # 39307; array fabrication # 39286
T4 construct: thioredoxin; made in house; host or cells: BL21(DE3)pLysS E. coli
In short: as §1

GRB7 SH2 domain = GRB7 SH2 domain (Homo sapiens, UniProt Q14451); set-up: 6X His; thioredoxin; made in house; host or cells: E. coli BL21(DE3)pLysS; settings: previous protein microarray data, Figure S5; cited from earlier work
GRB7 SH2 domain, sequence (Q14451 431-527 limits assumed): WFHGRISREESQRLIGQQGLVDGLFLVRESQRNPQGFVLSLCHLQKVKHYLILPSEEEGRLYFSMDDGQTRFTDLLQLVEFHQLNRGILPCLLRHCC

T3 sequence (Q63HR2 whole entry, the tested form may be a part): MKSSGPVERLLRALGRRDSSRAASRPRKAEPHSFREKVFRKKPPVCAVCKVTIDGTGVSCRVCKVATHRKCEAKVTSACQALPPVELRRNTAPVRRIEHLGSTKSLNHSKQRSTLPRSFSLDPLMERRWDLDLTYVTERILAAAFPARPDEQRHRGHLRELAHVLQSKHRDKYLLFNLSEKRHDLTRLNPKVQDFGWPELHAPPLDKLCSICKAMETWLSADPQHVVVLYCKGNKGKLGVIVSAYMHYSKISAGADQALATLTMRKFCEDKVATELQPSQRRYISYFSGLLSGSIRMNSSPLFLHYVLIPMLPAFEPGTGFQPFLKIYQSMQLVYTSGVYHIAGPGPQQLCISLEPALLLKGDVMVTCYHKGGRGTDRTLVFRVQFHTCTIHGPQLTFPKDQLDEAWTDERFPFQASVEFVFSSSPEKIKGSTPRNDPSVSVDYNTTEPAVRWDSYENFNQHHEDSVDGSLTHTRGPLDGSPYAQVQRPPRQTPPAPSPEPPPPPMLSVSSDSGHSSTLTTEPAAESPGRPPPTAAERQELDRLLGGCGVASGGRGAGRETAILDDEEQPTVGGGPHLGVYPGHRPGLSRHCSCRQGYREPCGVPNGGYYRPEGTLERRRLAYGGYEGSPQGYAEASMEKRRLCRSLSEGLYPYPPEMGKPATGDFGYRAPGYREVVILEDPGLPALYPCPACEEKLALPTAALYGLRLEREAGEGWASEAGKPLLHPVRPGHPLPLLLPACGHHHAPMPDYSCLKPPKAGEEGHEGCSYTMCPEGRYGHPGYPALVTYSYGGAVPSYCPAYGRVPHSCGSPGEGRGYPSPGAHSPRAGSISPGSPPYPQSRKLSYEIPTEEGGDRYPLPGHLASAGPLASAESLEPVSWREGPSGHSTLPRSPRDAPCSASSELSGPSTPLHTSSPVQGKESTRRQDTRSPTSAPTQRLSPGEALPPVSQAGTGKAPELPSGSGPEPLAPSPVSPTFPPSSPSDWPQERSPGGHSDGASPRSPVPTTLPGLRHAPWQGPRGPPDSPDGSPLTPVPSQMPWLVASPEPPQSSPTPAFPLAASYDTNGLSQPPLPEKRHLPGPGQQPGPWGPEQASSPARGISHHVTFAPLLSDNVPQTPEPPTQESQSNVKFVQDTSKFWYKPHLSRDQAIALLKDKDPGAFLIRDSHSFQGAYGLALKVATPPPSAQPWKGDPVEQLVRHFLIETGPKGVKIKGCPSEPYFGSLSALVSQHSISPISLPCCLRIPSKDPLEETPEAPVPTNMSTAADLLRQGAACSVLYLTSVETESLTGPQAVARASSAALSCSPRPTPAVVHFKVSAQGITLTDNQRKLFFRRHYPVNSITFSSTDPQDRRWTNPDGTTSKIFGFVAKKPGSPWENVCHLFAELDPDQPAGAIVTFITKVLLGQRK
T2 sequence (Q06124 whole entry, the tested form may be a part): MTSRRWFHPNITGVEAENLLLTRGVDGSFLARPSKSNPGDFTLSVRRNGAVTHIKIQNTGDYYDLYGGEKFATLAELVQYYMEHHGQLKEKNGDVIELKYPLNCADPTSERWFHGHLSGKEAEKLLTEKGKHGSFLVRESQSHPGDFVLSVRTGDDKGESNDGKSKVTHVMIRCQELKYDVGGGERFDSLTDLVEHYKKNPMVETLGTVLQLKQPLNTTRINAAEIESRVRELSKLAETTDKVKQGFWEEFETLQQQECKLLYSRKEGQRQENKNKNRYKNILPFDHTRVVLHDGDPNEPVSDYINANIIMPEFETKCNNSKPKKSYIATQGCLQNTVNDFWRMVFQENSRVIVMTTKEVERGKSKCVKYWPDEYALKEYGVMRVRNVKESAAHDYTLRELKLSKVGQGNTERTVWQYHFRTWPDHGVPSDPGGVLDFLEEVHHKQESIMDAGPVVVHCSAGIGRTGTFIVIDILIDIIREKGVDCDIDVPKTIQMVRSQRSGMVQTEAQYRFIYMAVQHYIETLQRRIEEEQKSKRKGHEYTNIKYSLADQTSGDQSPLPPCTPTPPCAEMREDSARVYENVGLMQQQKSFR
T4 sequence (Q8WV28 whole entry, the tested form may be a part): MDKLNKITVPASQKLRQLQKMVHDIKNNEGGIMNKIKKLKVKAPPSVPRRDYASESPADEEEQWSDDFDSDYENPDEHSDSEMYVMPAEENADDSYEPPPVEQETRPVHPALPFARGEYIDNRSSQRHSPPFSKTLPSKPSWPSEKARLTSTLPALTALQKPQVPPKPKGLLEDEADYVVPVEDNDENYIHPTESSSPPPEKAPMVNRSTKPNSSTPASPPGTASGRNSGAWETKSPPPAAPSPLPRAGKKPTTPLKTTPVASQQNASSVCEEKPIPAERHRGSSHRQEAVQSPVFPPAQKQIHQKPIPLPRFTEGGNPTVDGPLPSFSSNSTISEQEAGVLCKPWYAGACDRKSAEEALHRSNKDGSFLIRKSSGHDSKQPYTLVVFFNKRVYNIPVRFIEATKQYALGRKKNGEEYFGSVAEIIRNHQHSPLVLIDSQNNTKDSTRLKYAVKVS
NCK2 SH2 domain, sequence (O43639 285-380 limits assumed): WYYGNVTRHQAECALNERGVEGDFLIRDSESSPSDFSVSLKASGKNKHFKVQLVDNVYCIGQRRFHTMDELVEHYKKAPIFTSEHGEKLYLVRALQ
VAV2 SH2 domain, sequence (P52735 673-767 limits assumed): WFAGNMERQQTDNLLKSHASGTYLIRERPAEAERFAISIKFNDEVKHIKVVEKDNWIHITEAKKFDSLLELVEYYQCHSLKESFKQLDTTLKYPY
PLCG2-NC tandem SH2 domains, sequence (P16885 532-735 limits assumed): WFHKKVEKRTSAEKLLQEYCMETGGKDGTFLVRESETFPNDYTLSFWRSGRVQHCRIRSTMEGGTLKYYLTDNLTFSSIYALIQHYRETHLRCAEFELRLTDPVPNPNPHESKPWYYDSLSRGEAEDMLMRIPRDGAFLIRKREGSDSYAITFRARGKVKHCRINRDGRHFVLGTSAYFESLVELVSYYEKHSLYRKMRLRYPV
PIK3R2-N SH2 domain, sequence (O00459 330-425 limits assumed): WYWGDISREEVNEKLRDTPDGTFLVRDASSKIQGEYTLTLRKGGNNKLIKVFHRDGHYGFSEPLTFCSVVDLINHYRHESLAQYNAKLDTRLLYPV
T1 sequence (O75159 whole entry, the tested form may be a part): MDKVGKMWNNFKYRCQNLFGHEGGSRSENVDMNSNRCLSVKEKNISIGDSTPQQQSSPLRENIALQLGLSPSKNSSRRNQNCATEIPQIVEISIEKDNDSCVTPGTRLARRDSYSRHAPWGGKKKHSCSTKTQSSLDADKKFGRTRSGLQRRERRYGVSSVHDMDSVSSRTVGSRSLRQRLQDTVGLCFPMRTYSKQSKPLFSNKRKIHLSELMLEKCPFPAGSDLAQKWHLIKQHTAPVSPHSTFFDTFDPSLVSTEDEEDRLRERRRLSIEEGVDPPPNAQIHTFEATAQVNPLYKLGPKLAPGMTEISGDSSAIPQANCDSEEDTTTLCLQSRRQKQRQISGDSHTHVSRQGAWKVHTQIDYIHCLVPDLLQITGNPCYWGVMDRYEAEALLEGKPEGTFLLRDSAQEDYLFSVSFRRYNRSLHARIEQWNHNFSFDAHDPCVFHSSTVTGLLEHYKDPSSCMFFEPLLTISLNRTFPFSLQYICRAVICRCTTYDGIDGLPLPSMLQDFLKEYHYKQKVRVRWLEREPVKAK

`CC(C)C[C@H](NC(=O)[C@H](Cc1ccc(OP(=O)(O)O)cc1)NC(=O)[C@H](CCC(=O)O)NC(=O)[C@H](CCC(=O)O)NC(=O)[C@H](C)NC(=O)[C@@H](N)CC(=O)O)C(=O)N[C@H](C(=O)N1CCC[C@H]1C(=O)N[C@@H](CCC(N)=O)C(=O)N[C@@H](CCC(N)=O)C(=O)NCC(=O)N[C@@H](Cc1ccccc1)C(=O)N[C@@H](CC(=O)O)C(=O)O)C(C)C` [ErbB2 1023 13-mer] (HELM PEPTIDE1{D.A.E.E.[O=C([C@H](Cc1ccc(OP(=O)(O)O)cc1)N[*:1])[*:2]].L.V.P.Q.Q.G.F.D}$$$$V2.0) showed a Kd (VAV2 SH2 domain) of 9.9 µM.

`CC(C)[C@H](NC(=O)[C@H](CC(=O)O)NC(=O)[C@@H]1CCCN1C(=O)[C@H](CCC(N)=O)NC(=O)[C@H](CC(N)=O)NC(=O)[C@@H](NC(=O)[C@H](Cc1ccc(OP(=O)(O)O)cc1)NC(=O)[C@H](CCC(=O)O)NC(=O)[C@@H]1CCCN1C(=O)[C@H](CCC(N)=O)NC(=O)[C@@H]1CCCN1)C(C)C)C(=O)N[C@@H](CCCNC(=N)N)C(=O)N[C@@H](CC(=O)O)C(=O)O` [ErbB2 1139 13-mer] (HELM PEPTIDE1{P.Q.P.E.[O=C([C@H](Cc1ccc(OP(=O)(O)O)cc1)N[*:1])[*:2]].V.N.Q.P.D.V.R.D}$$$$V2.0) gave a Kd (PIK3R2-N SH2 domain) of 2.2 µM.

For `CC(C)C[C@H](NC(=O)[C@H](CC(N)=O)NC(=O)[C@@H](N)CC(=O)O)C(=O)N[C@@H](Cc1ccc(O)cc1)C(=O)N[C@@H](Cc1ccc(OP(=O)(O)O)cc1)C(=O)N[C@@H](Cc1c[nH]c2ccccc12)C(=O)N[C@@H](CC(=O)O)C(=O)N[C@@H](CCC(N)=O)C(=O)N[C@@H](CC(=O)O)C(=O)N1CCC[C@H]1C(=O)N1CCC[C@H]1C(=O)N[C@@H](CCC(=O)O)C(=O)N[C@@H](CC(=O)O)C(=O)O` [ErbB2 1222 13-mer] (HELM PEPTIDE1{D.N.L.Y.[O=C([C@H](Cc1ccc(OP(=O)(O)O)cc1)N[*:1])[*:2]].W.D.Q.D.P.P.E.D}$$$$V2.0), the Kd [1] was 6.4 µM.

For `CC(C)C[C@H](NC(=O)[C@@H]1CCCN1C(=O)[C@H](C)NC(=O)[C@@H](NC(=O)[C@H](Cc1ccc(OP(=O)(O)O)cc1)NC(=O)CNC(=O)[C@H](CC(=O)O)NC(=O)[C@@H](NC(=O)[C@@H](N)CCC(=O)O)[C@@H](C)O)C(C)C)C(=O)N[C@H](C(=O)N[C@@H](CS)C(=O)N[C@@H](CO)C(=O)N[C@@H](CC(=O)O)C(=O)O)[C@@H](C)O` [ErbB2 pY1127], the “Kd” value (SH2 and PTB domains [2]) was 0.70 µM, the “Kd” value (SH2 and PTB domains [3]; PM assay replicate # 39336) was 1.53 µM and the “Kd” value (SH2 and PTB domains [3]; PM assay replicate # 39337) was 1.15 µM. For the same compound, the “Kd” value (SH2 and PTB domains [4]; PM assay replicate # 39336) was 32.59 µM and the “Kd” value (SH2 and PTB domains [4]; PM assay replicate # 39337) was 3.94 µM.

Work on `CSCC[C@H](NC(=O)[C@H](Cc1ccc(OP(=O)(O)O)cc1)NC(=O)[C@H](CCC(=O)O)NC(=O)[C@H](Cc1ccc(O)cc1)NC(=O)CNC(=O)[C@@H](N)CC(C)C)C(=O)N[C@@H](CC(=O)O)C(=O)N[C@H](C(=O)NCC(=O)N[C@@H](CO)C(=O)N[C@@H](CC(=O)O)C(=O)N[C@@H](CC(C)C)C(=O)N[C@@H](CC(=O)O)C(=O)O)C(C)C` [ErbB3 1224 13-mer] (HELM PEPTIDE1{L.G.Y.E.[O=C([C@H](Cc1ccc(OP(=O)(O)O)cc1)N[*:1])[*:2]].M.D.V.G.S.D.L.D}$$$$V2.0) yielded a Kd (NCK2 SH2 domain) of 4.6 µM.

In the case of `CC[C@H](C)[C@H](NC(=O)[C@H](CC(N)=O)NC(=O)[C@H](CC(N)=O)NC(=O)[C@H](CCCCN)NC(=O)[C@H](CC(C)C)NC(=O)[C@H](Cc1ccc(OP(=O)(O)O)cc1)NC(=O)[C@H](CCC(=O)O)NC(=O)[C@H](C)NC(=O)[C@H](CCCCN)NC(=O)CNC(=O)[C@H](CC(C)C)NC(=O)[C@@H](NC(=O)[C@H](CC(N)=O)NC(=O)[C@H](C)NC(=O)[C@@H](N)Cc1ccccc1)[C@@H](C)O)C(=O)N[C@@H](CC(C)C)C(=O)N[C@@H](CO)C(=O)N[C@@H](CC(=O)O)C(=O)O` [ErbB4 pY1221 (18-mer)] (HELM PEPTIDE1{F.A.N.T.L.G.K.A.E.[O=C([C@H](Cc1ccc(OP(=O)(O)O)cc1)N[*:1])[*:2]].L.K.N.N.I.L.S.D}$$$$V2.0), the “Kd” value (SH2 and PTB domains [5]) is reported as 4.00 µM.

For “DNLYpYWDQDPPEd [ErbB2 pY1222, N-terminally rhodamine-labeled 13-mer phosphopeptide]”, the “interaction with GRB7 on the PM platform” value (GRB7 SH2 domain) is given as “only displayed interactions with GRB7 from the PM platform”.
